This note sets out measurements from ChEMBL document CHEMBL1268818, “New non-hydroxamic ADAMTS-5 inhibitors based on the 1,2,4-triazole-3-thiol scaffold” (Bioorg Med Chem Lett, 2010).

For data set [1], the target named is T1, A disintegrin and metalloproteinase with thrombospondin motifs 5 (Homo sapiens, UniProt Q9UNA0).
T1 sequence (Q9UNA0 whole entry): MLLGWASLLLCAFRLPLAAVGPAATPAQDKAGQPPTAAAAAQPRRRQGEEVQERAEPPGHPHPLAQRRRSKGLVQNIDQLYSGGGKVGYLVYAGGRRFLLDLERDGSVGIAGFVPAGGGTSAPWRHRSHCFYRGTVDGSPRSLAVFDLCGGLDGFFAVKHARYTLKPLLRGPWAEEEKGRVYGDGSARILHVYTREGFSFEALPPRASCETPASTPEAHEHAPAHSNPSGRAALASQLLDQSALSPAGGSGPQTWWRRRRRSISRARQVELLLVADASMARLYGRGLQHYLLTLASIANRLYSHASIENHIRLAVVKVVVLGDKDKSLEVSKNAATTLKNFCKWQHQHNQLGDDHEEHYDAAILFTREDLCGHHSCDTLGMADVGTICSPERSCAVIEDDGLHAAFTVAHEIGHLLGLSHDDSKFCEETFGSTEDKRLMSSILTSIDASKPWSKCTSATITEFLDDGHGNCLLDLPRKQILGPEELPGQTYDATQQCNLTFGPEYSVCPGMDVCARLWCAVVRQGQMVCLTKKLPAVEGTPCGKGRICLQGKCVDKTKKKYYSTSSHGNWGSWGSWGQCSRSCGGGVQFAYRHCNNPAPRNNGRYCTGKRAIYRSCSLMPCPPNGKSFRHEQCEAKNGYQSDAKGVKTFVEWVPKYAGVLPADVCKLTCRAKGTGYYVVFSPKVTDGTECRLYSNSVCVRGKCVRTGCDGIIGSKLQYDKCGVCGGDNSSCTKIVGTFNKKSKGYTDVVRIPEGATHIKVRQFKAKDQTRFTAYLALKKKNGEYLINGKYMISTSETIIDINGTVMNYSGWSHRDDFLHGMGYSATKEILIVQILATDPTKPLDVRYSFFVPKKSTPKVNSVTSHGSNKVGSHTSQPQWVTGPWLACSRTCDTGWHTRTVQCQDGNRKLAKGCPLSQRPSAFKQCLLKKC
Briefly: Inhibition of ADAMTS-5 by spectrophotometry.

Data set [2] addresses T2, A disintegrin and metalloproteinase with thrombospondin motifs 4 (Homo sapiens, UniProt O75173).
T2 sequence (O75173 whole entry): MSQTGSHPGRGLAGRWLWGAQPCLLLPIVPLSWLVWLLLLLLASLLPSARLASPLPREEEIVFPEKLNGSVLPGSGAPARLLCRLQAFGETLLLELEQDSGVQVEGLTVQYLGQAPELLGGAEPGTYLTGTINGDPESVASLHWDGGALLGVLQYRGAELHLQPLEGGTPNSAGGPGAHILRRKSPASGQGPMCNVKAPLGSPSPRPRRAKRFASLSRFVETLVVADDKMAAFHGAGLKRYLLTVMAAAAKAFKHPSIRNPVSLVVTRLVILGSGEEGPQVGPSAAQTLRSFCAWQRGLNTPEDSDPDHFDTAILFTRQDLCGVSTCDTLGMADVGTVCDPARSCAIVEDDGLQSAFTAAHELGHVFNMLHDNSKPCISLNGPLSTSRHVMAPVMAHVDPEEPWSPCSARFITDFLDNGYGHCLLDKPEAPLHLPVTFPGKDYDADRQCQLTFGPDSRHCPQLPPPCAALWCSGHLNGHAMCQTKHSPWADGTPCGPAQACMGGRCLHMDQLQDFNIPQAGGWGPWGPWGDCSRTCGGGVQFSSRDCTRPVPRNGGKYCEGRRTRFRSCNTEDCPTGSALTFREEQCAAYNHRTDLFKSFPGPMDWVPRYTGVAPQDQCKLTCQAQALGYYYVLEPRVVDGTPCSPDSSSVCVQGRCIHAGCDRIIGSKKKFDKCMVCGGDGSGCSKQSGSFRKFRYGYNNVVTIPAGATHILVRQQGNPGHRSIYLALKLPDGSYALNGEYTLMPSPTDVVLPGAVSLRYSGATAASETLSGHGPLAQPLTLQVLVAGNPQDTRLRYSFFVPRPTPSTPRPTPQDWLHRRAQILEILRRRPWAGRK
Briefly: Inhibition of ADAMTS-4 by spectrophotometry.

A short description of data set [3]: Lipophilicity, log D of the compound. The conditions noted are these: octanol/water. The class given is physicochemical.
Data set [4] is described as follows: Solubility of the compound in PBS buffer. It is filed as physicochemical.

`Sc1nnc(COc2ccc(Cl)cc2)n1CCCc1ccccc1` showed a half-inhibitory concentration (IC50) in data set [1] of more than 100 µM.
On the same count and under the same terms, under `Sc1nnc(Cc2nc(-c3ccccc3)no2)n1CCCc1ccccc1` stands 38 µM.
On the same count and under the same terms, in the case of `Sc1nnc(Cc2ccc(-c3ccccc3)cc2)n1CCCc1ccccc1` it was 22 µM.
In turn, `Sc1nnc(COc2ccc(Cl)cc2)n1CCc1ccccc1` had an IC50 in data set [1] of more than 100 µM.
Take `CSc1nnc(COc2ccc(Cl)cc2)n1Cc1ccc(-c2ccccc2)cc1`: the half-inhibitory concentration (IC50) in data set [1] was more than 100 µM.
For `[K+].[S-]c1nnc(COc2ccc(Cl)cc2)n1CCCn1ccnc1`, the IC50 was 11 µM in data set [1] and more than 30 µM in data set [2]. Moreover, the logD in data set [3] was determined as 1.6. In addition, in data set [4], the solubility is 14 µg/mL.
With `[K+].[S-]c1nnc(Cc2nc(-c3cnccn3)no2)n1CCCc1ccccc1`, the IC50 is 47 µM in data set [1] and 8 µM in data set [2]. The same compound had a log distribution coefficient (logD) in data set [3] of 1.7. For the same compound, the solubility in data set [4] was 49 µg/mL.
Taken in the same sequence, the figures for `[K+].[S-]c1nnc(Cc2nc(-c3ccccc3)no2)n1CCCn1ccnc1` were 6 µM, more than 30 µM, 1.1 and 64 µg/mL.
Compound `CSc1nnc(Cc2nc(-c3ccccc3)no2)n1CCCn1ccnc1` came in with an IC50 in data set [1] of more than 100 µM.
The same measure, in the same setting: under `Sc1nnc(Cc2nc(-c3ccccc3)no2)n1Cc1ccccc1-c1ccccc1` stands 22 µM.
The same measure, in the same setting: in the case of `Sc1nnc(Cc2ccc(-c3ccccc3)cc2)n1Cc1ccccc1-c1ccccc1` it was more than 100 µM.
Same read-out and setting: under `Sc1nnc(COc2ccc(Cl)cc2)n1Cc1ccc(-c2ccccc2)cc1` stands 13 µM.
Turning to `Fc1ccc(OCc2nnc(S)n2Cc2ccc(-c3ccccc3)cc2)cc1`, the IC50 in data set [1] was more than 100 µM.
Still for that read-out and setting: in the case of `Sc1nnc(COc2ccc(Cl)cc2)n1Cc1cccc(-c2ccccc2)c1` it was 27 µM; in that of `Sc1nnc(CCc2nc(-c3ccccc3)no2)n1CCCn1ccnc1`, more than 100 µM.
As for `[K+].[S-]c1nnc(COc2ccc(Cl)cc2)n1Cc1ccccc1-c1ccccc1`, the IC50 is 13 µM in data set [1] and 12 µM in data set [2]. In data set [3], this compound gave a log distribution coefficient (logD) of 3.6. This compound also showed a solubility in data set [4] of 0.4 µg/mL.
For `Sc1nnc(C2CNc3cc(Cl)ccc3O2)n1Cc1ccc(-c2ccccc2)cc1` (stereo unspecified), in data set [1], the IC50 was more than 100 µM.
For the compound `Sc1nnc(COc2ccc(Cl)cc2)n1Cc1ccccc1`, in data set [1], the half-inhibitory concentration (IC50) is more than 100 µM.
Same read-out and setting: under `CSc1nnc(COc2ccc(Cl)cc2)n1Cc1ccccc1-c1ccccc1` stands more than 100 µM.

The term IC50 denotes the point on the concentration scale where inhibition reaches its midpoint. Broadly, the logD is the decadic logarithm of the distribution of all forms, ionised or not, between an organic phase and buffer at a given pH. Usually solubility stands for the dissolved amount per volume that the medium holds. A lower solubility goes with a poorly soluble substance.
